{"source": "paper PMC6195125", "about": "(European journal of medicinal chemistry, 2018)", "key": {"[1]": {"tested_on": "HepG2-A16-CD81EGFP cells", "assay": "HepG2 cytotoxicity bioluminescence assay", "assay_type": "cell-based, human", "conditions": "read-out: HepG2 IC50"}, "[2]": {"tested_on": "mammalian cell", "conditions": "read-out: Cytotoxicity IC50; cited from earlier work"}, "[3]": {"tested_on": "P. falciparum", "conditions": "read-out: P. falciparum IC50; in vitro; cited from earlier work"}, "[4]": {"tested_on": "P. falciparum 3D7", "assay_type": "cell-based", "conditions": "Plasmodium falciparum, 3D7, read-out: P.falciparum IC50 Pf3D7"}, "[5]": {"tested_on": "P. falciparum Dd2", "assay": "microbe, parasite or virus in culture", "assay_type": "cell-based", "conditions": "Plasmodium falciparum, DD2, read-out: P.falciparum IC50 PfDd2"}, "[6]": {"tested_on": "P. falciparum NF54 late stage gametocytes (IV-V)", "assay": "Imaging-based viability assay, late stage gametocytes", "assay_type": "cell-based", "conditions": "Plasmodium falciparum, NF54, read-out: Pf LSG inhibition at 40 μM"}, "[7]": {"tested_on": "normal human neonatal foreskin fibroblasts (NFFs)", "assay": "Cytotoxicity against neonatal foreskin fibroblasts", "assay_type": "cell-based", "conditions": "Fibroblast, read-out: NFF IC50"}, "[8]": {"tested_on": "P. falciparum stage V gametocytes", "assay": "ATP bioluminescence assay, mature gametocytes", "assay_type": "cell-based, Plasmodium falciparum", "conditions": "read-out: Pf stage V gametocytes IC50"}, "[9]": {"tested_on": "P. berghei exo-erythrocytic forms (EEF)", "assay_type": "cell-based, Plasmodium berghei", "conditions": "read-out: Pb EEF IC50; P. berghei-Luc in HepG2-A16-CD81EGFP cells, 48 h"}}, "note": "Read-outs that look alike come from different tables or passages of the source.", "data": [{"compound": "O=C1C(O)=C([C@H]2CC[C@H](c3ccc(Cl)cc3)CC2)C(=O)c2ccccc21", "note": "[ATQ, Atovaquone]", "values": [{"measurement": "IC50", "setting": "[1]; Homo sapiens, HepG2, 48 h", "result": "> 0.5", "unit": "µM"}]}, {"compound": "CCC(=O)CCCCC[C@@H]1NC(=O)[C@H]2CCCCN2C(=O)[C@H]([C@@H](C)CC)NC(=O)[C@H](Cc2cn(OC)c3ccccc23)NC1=O", "note": "[Apicidin]", "values": [{"measurement": "IC50", "setting": "[2]", "result": "50 to 100", "unit": "nM"}, {"measurement": "IC50", "setting": "[3]", "result": 200, "unit": "nM"}]}, {"compound": "O=C(/C=C/c1cccc(S(=O)(=O)Nc2ccccc2)c1)NO", "note": "[Belinostat]", "values": [{"measurement": "IC50", "setting": "[2]", "result": "1420 to 2370", "unit": "nM"}, {"measurement": "IC50", "setting": "[3]", "result": "60 to 130", "unit": "nM"}]}, {"compound": "CCN(CC)CCCC(C)Nc1ccnc2cc(Cl)ccc12", "note": "(centres unmarked) [CQ, chloroquine]", "values": [{"measurement": "IC50", "setting": "[4]", "result": 11, "unit": "nM"}, {"measurement": "IC50", "setting": "[5]", "result": 49, "unit": "nM"}]}, {"compound": "O=C(CN(Cc1ccc(C(=O)NO)cc1)C(=O)c1cccc2ccccc12)NC1CCCCC1", "note": "[Compound 1g]", "values": [{"measurement": "inhibition at 40 µM", "setting": "[6]", "result": 97, "unit": "%"}]}, {"compound": "Cc1ccc(NC(=O)CN(Cc2ccc(C(=O)NO)cc2)C(=O)c2cccc3ccccc23)cc1", "note": "[Compound 1k]", "values": [{"measurement": "IC50", "setting": "[7]", "result": "> 10", "unit": "µM"}]}, {"compound": "Cc1[nH]c2ccccc2c1CCNCc1ccc(/C=C/C(=O)NO)cc1", "note": "[Panobinostat]", "values": [{"measurement": "IC50", "setting": "[2]", "result": "70 to 180", "unit": "nM"}, {"measurement": "IC50", "setting": "[3]", "result": "10 to 30", "unit": "nM"}]}, {"compound": "CC(/C=C/C(=O)NO)=C\\[C@@H](C)C(=O)c1ccc(N(C)C)cc1", "note": "[Trichostatin A (TSA), Trichostatin A]", "values": [{"measurement": "IC50", "setting": "[3]", "result": "8 to 11", "unit": "nM"}]}, {"compound": "CN(C)c1ccc2nc3ccc(N(C)C)cc3[s+]c2c1", "note": "[methylene blue]", "values": [{"measurement": "IC50", "setting": "[8]; Plasmodium falciparum, 48 h", "result": 210, "unit": "µM"}]}, {"compound": "Methyl 4-((3,5-dimethyl-N-(2-oxo-2-(p-tolylamino)ethyl)benzamido)methyl)benzoate [Compound 1m]", "values": [{"measurement": "IC50", "setting": "[9]", "result": 5.55, "unit": "µM"}, {"measurement": "IC50", "setting": "[1]; Table 4", "result": 21.4, "unit": "µM"}, {"measurement": "IC50", "setting": "[1]; Table 7 and text, 48 h", "result": 21.4, "unit": "µM"}, {"measurement": "IC50", "setting": "[8]; ATP assay, 48 h incubation", "result": "10.1 ± 3.72", "unit": "µM"}]}]}
